“And” between values parts separate entries of the source, which are not always exact repeats. Equal entries are not always repeated. Where two headings read alike, the source gives them in different places.
Legend:
[1] = tested on: T1, WT CqsS; type: cell-based; conditions: Treatment 1uM
T1 construct: made in house; host or cells: E. coli C43 (DE3), pET21b; used as inverted membrane vesicles

[2] = target: T2, CqsS (Vibrio cholerae serotype O1, UniProt Q9KM66); experiment: cell-based; conditions: for Light production: strain WN1102
T2 construct: endogenous in cells; host or cells: V. cholerae WN1102 (ΔcqsA ΔluxQ/pBB1), derived from C6706str2

[3] = tested on: T1, WT CqsS; type: biochemical; conditions: for % Total Phosphorylation: CqsS WT
[4] = tested on: CqsS C170Y; experiment: CqsS-dependent repression of qrr4-gfp, CqsS C170Y (Fig 7C); type: cell-based, Vibrio cholerae; conditions: Treatment 1uM; CqsS mutant C170Y
[5] = tested on: CqsS F166L; experiment: CqsS-dependent repression of qrr4-gfp, CqsS F166L (Fig 7C); type: cell-based, Vibrio cholerae; conditions: Treatment 1uM; CqsS mutant F166L
[6] = tested on: CqsS F162A; experiment: CqsS-dependent repression of qrr4-gfp, CqsS F162A (Fig 7C); type: cell-based, Vibrio cholerae; conditions: Treatment 1uM; CqsS mutant F162A
[7] = tested on: T3, CqsS D618N; experiment: CqsS D618N autophosphorylation in inverted membrane vesicles, 32P (Fig 7A); type: biochemical, Vibrio cholerae
T3 construct: made in house; host or cells: E. coli C43 (DE3), pET21b; used as inverted membrane vesicles

## O=C(Cc1ccc(-c2ccccc2)cc1)NC1CCCC1 [#10]
[1]
  Qrr4-GFP/OD600: 1697194 and 1657949 and 1642162
[2]; Agonist 0.0119209 nM
  Light production: 9369.4 RLU and 6986.9 RLU and 10942 RLU
[2]; Agonist 0.0476837 nM
  Light production: 9423.1 RLU and 8000 RLU and 9340.1 RLU
[2]; Agonist 0.190735 nM
  Light production: 12692 RLU and 13456 RLU and 11192 RLU
[2]; Agonist 0.762939 nM
  Light production: 11313 RLU and 14104 RLU and 15238 RLU
[2]; Agonist 3.05176 nM
  Light production: 22600 RLU and 24142 RLU and 30238 RLU
[2]; Agonist 12.207 nM
  Light production: 47534 RLU and 48144 RLU and 43294 RLU
[2]; Agonist 48.8281 nM
  Light production: 434632 RLU and 280649 RLU and 290930 RLU
[2]; Agonist 195.312 nM
  Light production: 18756970 RLU and 17581320 RLU and 17098310 RLU
[2]; Agonist 781.25 nM
  Light production: 54801790 RLU and 56977330 RLU and 58542960 RLU
[2]; Agonist 3125 nM
  Light production: 59104040 RLU and 65075830 RLU and 69081300 RLU
[2]; Agonist 12500 nM
  Light production: 60176380 RLU and 64830980 RLU and 65866960 RLU
[2]; Agonist 50000 nM
  Light production: 60204070 RLU and 58034020 RLU and 58318400 RLU
[2]; light production, reporter strain WN1102, 4 h at 30 °C
  EC50: 62 nM
[3]; Agonist 0.1 uM
  % Total Phosphorylation: 86.7558%
[3]; Agonist 0.5 uM
  % Total Phosphorylation: 84.62% and 81.5912%
[3]; Agonist 1 uM
  % Total Phosphorylation: 70.72%
[3]; Agonist 5 uM
  % Total Phosphorylation: 11.17% and 6.892%
[3]; Agonist 10 uM
  % Total Phosphorylation: 7.64% and 4.71%
[3]; Agonist 20 uM
  % Total Phosphorylation: 4.64% and 6.727%
[3]; Agonist 30 uM
  % Total Phosphorylation: 7.41% and 4.674%
[3]; Agonist 100 uM
  % Total Phosphorylation: 7.94% and 6.455%
[3]; Agonist 200 uM
  % Total Phosphorylation: 9.2% and 11.8727%
[3]; saturating concentration (Fig 7B)
  inhibition of WT CqsS autophosphorylation: 90%
[4]
  Qrr4-GFP/OD600: 18211540 and 17807950 and 19517480
[5]
  Qrr4-GFP/OD600: 1551288 and 1596042 and 1572105
[6]
  Qrr4-GFP/OD600: 18605320 and 18513840 and 18292630
[7]; agonist 0.32 uM
  % Total Phosphorylation: 78.2169% and 129.787% and 72.1832% and 83.4166% and 68.7823%
[7]; agonist 0.64 uM
  % Total Phosphorylation: 67.6455% and 78.826% and 54.4942% and 82.803% and 54.4178% and 76.2235%
[7]; agonist 5.12 uM
  % Total Phosphorylation: 12.1256% and 15.8552% and 14.0183% and 14.8493% and 9.564% and 18.5457%
[7]; agonist 6.4 uM
  % Total Phosphorylation: 8.254% and 10.2835% and 8.308% and 5.772% and 5.105% and 9.008%
[7]; agonist 8 uM
  % Total Phosphorylation: 7.787% and 6.051% and 9.483% and 6.182% and 5.718% and 6.335%

Reference: PMC5467912, “Asymmetric regulation of quorum-sensing receptors drives autoinducer-specific gene expression programs in Vibrio cholerae” (PLoS Genetics, 2017)
